Columns and labels:
[1] = system: dopaminergic neurons differentiated from iPSC derived from disseminated PD patients; assay: cell viability (cell titer glo) of iPSC differentiated dopaminergic neurons; type: cell-based, human; details: II-23 0.6 μM, ACA 0.5 μM, from day 15 of culture; CTG kit
Protocol: Using normal and disseminated PD patient-derived induced pluripotent stem cells (iPSC), performing drug interventions using the TRPM2 inhibitors ACA and II-23 after they were induced and differentiated into mature dopaminergic neurons, the drug treating method is as follows: • a. Calculating the materials for the experiment, and starting preparing when the dopaminergic neurons are differentiated to the 8th day. The petri dishes should be treated with 33 μg/mL PDL overnight and washed with sterilized water. After drying, 2 μg/mL of laminin was added and incubated overnight. Both PDL and laminin can be recycled for reuse. • b. Digesting and collecting the differentiated cells with Accutase, and counting with a cell counting plate, and then diluting to 500,000/mL with maturation medium (Y-27632 should be added). Fluorescence confocal imaging was performed using a confocal dish inoculated with 2 mL/dish, and cell viability assays were performed using a 96-well plate inoculated with 100 μL/well. Taking this time point as the 10th day, changing to Y-27632-free medium on the 11th day, and changing the medium every two days. • c. When the cells were cultured to the 15th day, treating the drugs to a final concentration with the medium, the working concentration of ACA is 0.5 μM, and the working concentration of II-23 is 0.6 μM, and the drug-containing medium was changed every four days. […]

[2] = system: dopaminergic neurons differentiated from iPSC derived from disseminated PD patients; assay: mitochondrial fusion morphology (Mitotracker, Girk2 labeling) of iPSC differentiated dopaminergic neurons; type: cell-based, human; details: II-23 0.6 μM, ACA 0.5 μM; Mitotracker staining, Girk2-positive neurons
Protocol: Using normal and disseminated PD patient-derived induced pluripotent stem cells (iPSC), performing drug interventions using the TRPM2 inhibitors ACA and II-23 after they were induced and differentiated into mature dopaminergic neurons, the drug treating method is as follows: • a. Calculating the materials for the experiment, and starting preparing when the dopaminergic neurons are differentiated to the 8th day. The petri dishes should be treated with 33 μg/mL PDL overnight and washed with sterilized water. After drying, 2 μg/mL of laminin was added and incubated overnight. Both PDL and laminin can be recycled for reuse. • b. […] Fluorescence confocal imaging was performed using a confocal dish inoculated with 2 mL/dish, and cell viability assays were performed using a 96-well plate inoculated with 100 μL/well. […]
Positive dopamine neurons were labeled with a dopaminergic neuron marker molecule Girk2 antibody susceptible for SNc, and cellular mitochondria were labeled with the mitochondrial dye mitotracker as in FIG. 15. […] Finally, performing the fluorescence imaging: removing the secondary antibody, and washing three times with 1×PBS, adding 50% Glycerol for fluorescence protection, and then imaging with a Zeiss LSM880 laser confocal microscope, as shown in FIG. 15.

human TRPM2 channels = biological target: T1, human TRPM2 channels (Homo sapiens, UniProt O94759); assay: whole cell patch clamp, inhibition of TRPM2 channel current; type: cell-based; details: HEK293 cells stably expressing human TRPM2, 500 μM ADPR
T1 construct: expressed in transfected cells
Protocol: The fused heterocyclic compound of the present invention has an inhibitory effect on the TRPM2 channel, and its pharmacological activity is measured using whole cell patch clamp technology, the corresponding steps are as follows: Incubating HEK293 cells stably expressing human TRPM2 channels in DMEM/F-12 medium containing 10% bovine serum, 50 units/mL of penicillin and […] of streptomycin under the condition of 5% CO2 and 37° C. The cells before testing are stored in the extracellular fluid (147 mM NaCl, 2 mM KCl, 1 mM MgCl2, 2 mM CaCl2, 10 mM HEPES, 13 mM glucose, pH 7.4). The electrode is filled with the electrode internal solution (147 mM NaCl, 0.05 mM EGTA, 1 mM MgCl2, 10 mM HEPES, 0.5 mM ADPR, pH=7.3), and the resistance is maintained at 3-5 M Ω. Administering ADPR into cells through electrodes, and detecting the ADPR concentration used to activate TRPM2 as 500 μM, when detecting a stable current, perfusing the corresponding concentration of fused heterocyclic compound II-1 into the extracellular fluid for at least 60 seconds. record the change in current magnitude using voltage ramp mode, changing the voltage from −100 mV to+100 mV within 500 ms, with a normal clamp voltage of 0 mV and a TRPM every 5 seconds; finally, replacing the extracellular fluid with a solution with pH=5.0 to block the TRPM2 current, the electrophysiological current test results obtained are shown in Table 1, and the electrophysiological current graph obtained is shown in FIG. 1. Similarly, administering corresponding concentrations of other fused heterocyclic compounds (II-2˜II-54, III-1˜III-11) into the extracellular fluid, taking electrophysiological tests using the same method, the results are shown in Table 1. The electrophysiological representative current graphs of some fused heterocyclic compounds (II-9, II-19, and II-36) inhibiting TRPM2 channel current are shown in FIG. 1.

[3] = system: C57BL/6 mice, transient middle cerebral artery occlusion (tMCAO); assay: mouse tMCAO ischemia/reperfusion injury model (Embodiment 68); type: in vivo; details: 3 mg/kg tail vein injection 3 h after reperfusion
Protocol: After isoflurane inhalation gas anesthesia of 22-25 g male C57BL/6 mice, the fiber-optic probes of the laser Doppler flowmeter were fixed to the animal's skull with glue for monitoring the cerebral blood flow of the middle cerebral artery (MCA) supplying cortex. […] Only animals whose blood flow values decreased to 20% of the basic value were selected according to the blood flow data monitored by the flowmeter. […]
The mice were decapitated 24 h after ischemia-reperfusion, the coronal planes of the brains were cut into brain slices of about 2 mm thickness uniformly, the brain slices were placed in 0.25% 2,3,5-triphenyltetrazolium chloride (TTC) solution, incubated at 37° C. […] The processed brain slices were photographed using a macro camera, and Image J image analysis software was used to calculate and count the cerebral infarct volume, and the measured results are shown in FIG. 4. […]

[4] = system: C57BL/6 mice, transient middle cerebral artery occlusion (tMCAO); assay: mouse tMCAO cerebral stroke model (Embodiment 69); type: in vivo; details: 3 mg/kg tail vein injection 3 h after reperfusion; for area of cerebral infarction caused by tMCAO: TTC staining 24 h after ischemia-reperfusion; for neuromotor dysfunction scores caused by tMCAO: scored 24 h after ischemia-reperfusion
From the text: After isoflurane inhalation gas anesthesia of 22-25 g male C57BL/6 mice, the fiber-optic probes of a laser Doppler flowmeter were fixed to the skull of the mice with glue for monitoring the cerebral blood flow of the middle cerebral artery (MCA) supplying cortex. The mice were fixed in the supine position, and the middle of the neck was dehaired and routinely sterilized with 75% alcohol. An approximately 1.5 cm incision was made in the middle of the neck, and the skin of the neck was incised, and the muscle and fascia were separated along the inner edge of the sternocleidomastoideole; the right carotid artery sheath was bluntly separated to expose the right common carotid artery (CCA), external carotid artery (ECA), and internal carotid artery (ICA); after the surgical area was exposed satisfactorily, the CCA and ICA were temporarily clipped with arterial clips, and a small incision was made at the proximal end of the ECA with microsurgical scissors, and a nylon monofilament suture was inserted from the small incision along the ECA, and gently pushed into the intracranial area in the direction of the ICA for about 11.5±0.5 mm, blocking the beginning of the middle cerebral artery. Only the animals whose blood flow values decreased to 20% of the basic value were selected according to the blood flow data monitored by the flowmeter. After 90 minutes of ischemia, the monofilament sutures were gently withdrawn out, the arterial stumps were tied tightly, the surgical wounds were inspected, the bleeding was thoroughly stopped, a small amount of penicillin powder was sprinkled locally to prevent infection, and the subcutaneous tissues and the skin were sutured layer by layer, thus completing the ischemia reperfusion injury model. A heating plate was used to maintain the body temperature of the animals during surgery. After completion of the surgery, the sutured mice were placed in a heat preservation and humidification box until the mice recovered activities. Animals in the sham-operated group were subjected to the same surgical procedure but without middle artery occlusion.
Clean-grade male C57BL/6 mice were randomly divided into five groups, namely, the sham-operated group, the group of the positive control drug Edaravone(3 mg/kg), and the 3 mg/kg dose group of compounds II-1, II-23 and III-1.
The mice were subjected to tail vein injections of Edaravone, II-1, II-23, and III-1 respectively 3 h after modeling and reperfusion; the sham-operated group was injected with an equal volume of saline, and II-1, II-23, III-1, and Edaravone were dissolved in 0.9% saline solution. Neurological function scores and TTC staining of mice were performed 24 h after ischemia-reperfusion, and the results are shown in FIGS. 6, 7 and 8.
The mice were decapitated 24 h after ischemia-reperfusion, the coronal planes of the brains were cut into brain slices of about 2 mm thickness uniformly. The brain slices were placed in 0.25% 2,3,5-triphenyltetrazolium chloride (TTC) solution, incubated at 37° C. Celsius for 30 minutes away from light, stained, and fixed in 4% paraformaldehyde neutral buffer (pH 7.4) overnight. The processed brain slices were photographed using a macro camera, and Image J image analysis software was used to calculate and count the cerebral infarct volume, and the measured results are shown in FIG. 7. The formula for calculating the percentage of infarct volume was (sum of the left uninfarcted area −sum of the right uninfarcted area)/sum of the left uninfarcted area×100%.
According to the five-level, four-point standard of score, the mortality and neuromotor dysfunction scores of each group of mice were performed, and the results are shown in FIG. 8. […]

T1 sequence (O94759 whole entry): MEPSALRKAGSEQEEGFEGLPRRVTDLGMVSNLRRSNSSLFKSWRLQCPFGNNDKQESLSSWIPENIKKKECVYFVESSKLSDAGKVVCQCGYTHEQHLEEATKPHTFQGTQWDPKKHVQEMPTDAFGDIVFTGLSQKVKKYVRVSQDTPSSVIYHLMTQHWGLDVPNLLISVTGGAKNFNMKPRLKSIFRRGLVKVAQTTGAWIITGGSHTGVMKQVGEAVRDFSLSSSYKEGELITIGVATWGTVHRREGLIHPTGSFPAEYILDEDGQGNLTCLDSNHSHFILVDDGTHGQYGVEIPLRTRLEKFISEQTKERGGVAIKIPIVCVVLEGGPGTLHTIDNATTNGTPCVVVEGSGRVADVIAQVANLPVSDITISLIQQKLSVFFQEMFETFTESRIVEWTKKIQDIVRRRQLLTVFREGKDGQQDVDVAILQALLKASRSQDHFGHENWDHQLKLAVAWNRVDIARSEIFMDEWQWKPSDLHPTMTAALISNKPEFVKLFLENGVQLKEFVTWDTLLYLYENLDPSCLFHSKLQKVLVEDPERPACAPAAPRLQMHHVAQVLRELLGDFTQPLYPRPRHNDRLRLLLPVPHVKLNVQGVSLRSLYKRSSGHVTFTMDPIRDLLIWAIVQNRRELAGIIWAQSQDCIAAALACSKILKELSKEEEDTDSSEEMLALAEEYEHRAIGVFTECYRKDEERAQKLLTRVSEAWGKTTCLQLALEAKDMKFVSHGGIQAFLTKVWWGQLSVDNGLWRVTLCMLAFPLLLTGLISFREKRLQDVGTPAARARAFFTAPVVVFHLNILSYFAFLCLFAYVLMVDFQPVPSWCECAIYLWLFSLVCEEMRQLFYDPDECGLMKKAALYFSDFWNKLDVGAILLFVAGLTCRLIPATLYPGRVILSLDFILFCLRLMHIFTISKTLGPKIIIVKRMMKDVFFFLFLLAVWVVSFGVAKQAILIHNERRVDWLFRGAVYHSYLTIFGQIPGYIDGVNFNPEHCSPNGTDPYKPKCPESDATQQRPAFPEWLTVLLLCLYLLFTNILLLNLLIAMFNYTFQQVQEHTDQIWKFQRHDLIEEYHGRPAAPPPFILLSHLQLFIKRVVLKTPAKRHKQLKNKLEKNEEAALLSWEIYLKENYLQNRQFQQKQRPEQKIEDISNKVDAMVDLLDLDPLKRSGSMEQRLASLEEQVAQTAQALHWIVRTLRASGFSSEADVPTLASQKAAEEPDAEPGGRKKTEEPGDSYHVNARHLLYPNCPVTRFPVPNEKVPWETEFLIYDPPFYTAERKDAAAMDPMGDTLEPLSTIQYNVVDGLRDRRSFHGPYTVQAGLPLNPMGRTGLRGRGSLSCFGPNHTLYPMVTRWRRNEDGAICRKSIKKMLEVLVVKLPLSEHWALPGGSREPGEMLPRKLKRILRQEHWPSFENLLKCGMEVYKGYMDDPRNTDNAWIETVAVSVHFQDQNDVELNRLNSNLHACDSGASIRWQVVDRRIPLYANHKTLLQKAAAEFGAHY

CCCCCc1ccc(/C=C/C(=O)Nc2ccccc2C(=O)O)cc1 [ACA, reference compound]
cell viability of differentiated dopaminergic neurons derived from disseminated PD patients [1]: restored | excessive mitochondrial fusion in dopaminergic neurons derived from PD patients [2]: reversed

CCOC(=O)c1cc(C(=O)c2ccccc2)n2cccc2c1 [II-1, 5-benzoimide 7-carboxylic acid ethyl ester]
IC50 (human TRPM2 channels): 1 to 10 µM | volume of cerebral infarction caused by tMCAO ([3]; TTC staining 24 h after ischemia-reperfusion): significantly reduce | scores of neuromotor dysfunction caused by tMCAO ([3]; scored 24 h after ischemia-reperfusion): significantly reduce | area of cerebral infarction caused by tMCAO [4]: significantly reduced | neuromotor dysfunction scores caused by tMCAO [4]: significantly reduced

COC(=O)c1cc(C(=O)c2ccccc2)n2ccnc2c1 [III-1, 5-benzimidazolo[1,2-a]pyridine-7-methyl carboxylate]
IC50 (human TRPM2 channels): 1 to 10 µM | area of cerebral infarction caused by tMCAO [4]: significantly reduced | neuromotor dysfunction scores caused by tMCAO [4]: significantly reduced

CCNC(=O)c1cc(C(=O)c2ccccc2)n2ccnc2c1 [III-7, 5-benzoyl-N-ethylimidazolo[1,2-a]pyridine-7-formamide]
IC50 (human TRPM2 channels): 1 to 10 µM

CCN(CC)C(=O)c1cc(C(=O)c2ccccc2)n2ccnc2c1 [III-8, 5-Benzoyl-N,N-diethylimidazole[1,2-a]pyridine-7-formamide]
IC50 (human TRPM2 channels): 10 to 20 µM

O=C(c1ccccc1)c1cc(C(=O)N2CCCC2)cc2nccn12 [III-9]
IC50 (human TRPM2 channels): 10 to 20 µM

O=C(c1ccccc1)c1cc(C(=O)N2CCCCC2)cc2nccn12 [III-10, (5-benzimidazole[1,2-a]pyridine-7-yl) (piperidin-1-yl) ketone]
IC50 (human TRPM2 channels): 10 to 20 µM

CCOC(=O)c1cc(C(O)c2ccccc2)n2ccnc2c1 (stereo not drawn) [III-11, 5-(hydroxy (phenyl)methylimidazolo [1,2-a]pyridine-7-ethyl carboxylate]
IC50 (human TRPM2 channels): 20 to 50 µM
